Experiment [1] deals with primary human pan T-cells. Description: Human IL-2 Assay for GCN2 Inhibition (IL-2 secretion from T cells in low amino acid condition). In kind it is cell-based. As to conditions: Homo sapiens, T-cell, 96 h, IL-2 secretion from human T cells stimulated with anti-CD3/CD28 in low amino acid condition, ELISA, read-out: IL2/T-cell EC50. An excerpt:
Tumor microenvironment is profoundly immuno-suppressive. This may be attributed to the depletion of amino acids (like arginine and tryptophan) which triggers the activation of GCN2 in immune cells, including T cell and myeloid cells. In T cells, activation of GCN2 leads to reduce effector functions of CD8 T cells and induction and/or maintenance of immuno-suppressive T-regs. Inhibition of that immuno-suppressive response by GCN2 inhibitors enables an anti-cancer immune response by activating effector T-cells. Herein we describe an in-vitro system we established using human T-cells stimulated in low amino acid condition in order to engage the GCN2 biology. The method described involves the modulation of IL-2 levels secreted by human T cells in responses to the GCN2 inhibitors disclosed herein.
Amino acid-free RPMI was reconstituted with all but one of the amino acids found in standard RMPI (e.g. Arginine, Tryptophan), 10% charcoal-stripped fetal bovine serum, 100 Units/mL penicillin and 0.1 mg/mL streptomycin. Primary human pan T-cells were isolated using Pan T Cell Isolation Kit, human (MACS Miltenyi biotech Cat # Order no. 130-096-535) from apheresis cones and 5×104 pan T-cells per well. The purified T cells are seeded in Nunc™ 96-Well Polystyrene Round Bottom Microwell Plates (the cells are rested in No TRP media in a 15 ml falcon tube in the incubator for 30-45 minutes while titrations for tryptophan and the GCN2 inhibitor compound are made) A plate matrix was developed to titrate both a GCN2 inhibitor and the amino acid of interest ranging from “No Amino Acid” condition, up to the concentration found in the regular RPMI media (20 μM for TRP and 950 μM for Arginine). The cells were incubated for 30 min at 37° C. with the GCN2 inhibitor and then stimulated with 5×104 anti-CD3/CD28 Dynabeads® per well. After 96 hours of incubation the IL-2 level in the supernatant were measured using ELISA (R&D systems Cat # DY202 (Human IL-2 DuoSet ELISA). Data were plotted in GraphPad Prism software and EC50 is calculated.

The target in another experiment is GCN2 kinase (Homo sapiens (Human), UniProt Q9P2K8). Description: GCN2 Enzyme Inhibition Assay (Transcreener ADP2 fluorescence polarization). In kind it is biochemical. As to conditions: 280 μM ATP, 200 μM (RS)7 peptide, 4 nM GCN2, 25° C.; for Ki: Ki(app). The gist of the method:
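Transcreener ADP2 fluorescence polarization detection of ADP from 4 nM GCN2 with (RS)7 substrate in 25 mM Tris-HCl pH 7.5, 50 mM NaCl, 10 mM MgCl2, 1 mM DTT. Compound pre-incubated with enzyme 10 min at 25 °C; reaction started by ATP, run 1 h at 25 °C. IC50 and Ki(app) by tight-binding fit.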

In experiment [2] the target is intracellular GCN2 (phosphorylation of the GCN2 substrate eIF2α) (Homo sapiens (Human), UniProt Q9P2K8). As to the kind of experiment: GCN2 Cellular Inhibition Assay (AlphaScreen SureFire P-eIF2α Ser51, borrelidin-treated U2OS cells). The experiment is classed as cell-based. As to conditions: 10 μM borrelidin, 1 h. The gist of the method:
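U2OS cells adhered overnight, then given compound (top 40 μM, 4-fold serial dilutions) plus 10 μM borrelidin for 1 h at 37 °C. Lysates assayed for eIF2α phospho-Ser51 by AlphaScreen SureFire; % inhibition versus borrelidin-only wells.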
Background: In Alpha technology, singlet oxygen from a donor bead excites a nearby acceptor bead.

[3] abbreviates: phosphorylated eIF2α Ser51, read-out: GCN2 Biomarker (IC50).

Where two headings read alike, the source gives them in different places.

intracellular GCN2 (phosphorylation of the GCN2 substrate eIF2α), sequence (Q9P2K8 whole entry): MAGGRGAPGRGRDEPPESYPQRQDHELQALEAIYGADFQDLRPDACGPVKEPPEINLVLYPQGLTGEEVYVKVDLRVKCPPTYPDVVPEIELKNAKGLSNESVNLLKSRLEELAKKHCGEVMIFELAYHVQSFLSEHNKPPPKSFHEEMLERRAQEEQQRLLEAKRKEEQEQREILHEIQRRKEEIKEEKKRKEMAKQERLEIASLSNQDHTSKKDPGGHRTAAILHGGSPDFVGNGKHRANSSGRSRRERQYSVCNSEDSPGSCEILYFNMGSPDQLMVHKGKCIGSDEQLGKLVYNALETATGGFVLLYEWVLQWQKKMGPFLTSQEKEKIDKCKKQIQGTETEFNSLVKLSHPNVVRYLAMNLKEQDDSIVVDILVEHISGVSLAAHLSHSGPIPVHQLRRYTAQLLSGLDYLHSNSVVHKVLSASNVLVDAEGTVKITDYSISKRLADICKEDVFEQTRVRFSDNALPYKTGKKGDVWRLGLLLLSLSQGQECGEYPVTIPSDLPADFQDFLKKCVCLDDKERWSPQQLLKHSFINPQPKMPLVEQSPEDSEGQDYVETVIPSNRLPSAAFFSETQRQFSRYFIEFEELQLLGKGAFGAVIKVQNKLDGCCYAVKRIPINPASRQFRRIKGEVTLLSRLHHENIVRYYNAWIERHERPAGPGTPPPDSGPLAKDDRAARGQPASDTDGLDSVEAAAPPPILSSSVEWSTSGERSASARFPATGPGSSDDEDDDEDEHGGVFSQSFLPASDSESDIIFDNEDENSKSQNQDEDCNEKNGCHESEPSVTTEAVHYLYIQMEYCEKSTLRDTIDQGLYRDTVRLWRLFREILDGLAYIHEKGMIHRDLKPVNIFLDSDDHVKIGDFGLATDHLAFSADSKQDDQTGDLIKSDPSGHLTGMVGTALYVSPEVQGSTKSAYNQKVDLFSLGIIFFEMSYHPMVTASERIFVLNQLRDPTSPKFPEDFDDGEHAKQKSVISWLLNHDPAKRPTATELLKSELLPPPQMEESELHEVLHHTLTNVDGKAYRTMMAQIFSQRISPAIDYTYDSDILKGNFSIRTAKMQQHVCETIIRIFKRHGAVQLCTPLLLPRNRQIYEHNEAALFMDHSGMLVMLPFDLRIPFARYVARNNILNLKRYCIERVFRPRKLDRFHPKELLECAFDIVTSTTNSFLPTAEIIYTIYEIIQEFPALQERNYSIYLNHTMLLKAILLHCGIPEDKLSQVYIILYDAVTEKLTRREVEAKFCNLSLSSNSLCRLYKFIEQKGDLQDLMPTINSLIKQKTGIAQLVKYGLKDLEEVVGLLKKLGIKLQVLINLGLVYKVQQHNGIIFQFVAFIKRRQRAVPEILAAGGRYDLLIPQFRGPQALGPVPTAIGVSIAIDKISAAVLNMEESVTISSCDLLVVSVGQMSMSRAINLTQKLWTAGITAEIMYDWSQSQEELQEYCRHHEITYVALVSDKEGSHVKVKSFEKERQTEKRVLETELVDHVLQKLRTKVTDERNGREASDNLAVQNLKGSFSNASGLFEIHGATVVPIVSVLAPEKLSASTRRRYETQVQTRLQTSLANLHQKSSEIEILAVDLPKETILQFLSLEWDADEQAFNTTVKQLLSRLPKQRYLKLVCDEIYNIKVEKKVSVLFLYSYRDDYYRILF
GCN2 kinase, sequence (Q9P2K8 whole entry): as above

Take `C[C@H]1CN(c2ccnc(-c3cnc4ccc(C(F)(F)F)cn34)n2)C[C@@H](C(N)=O)O1` [I-562, (2S,6S)-6-methyl-4-(2-(6-(trifluoromethyl)imidazo[1,2-a]pyridin-3-yl)pyrimidin-4-yl)morpholine-2-carboxamide]: the EC50 in experiment [1] fell in the range of 100 to 500 nM.

With `NC(=O)[C@H]1CCCN(c2ccnc(-c3cnc4cc(F)c(Cl)cn34)n2)C1` [I-558, (S)-1-(2-(6-chloro-7-fluoroimidazo[1,2-a]pyridin-3-yl)pyrimidin-4-yl)piperidine-3-carboxamide], in experiment [1], the EC50 fell in the range of 100 to 500 nM.

As for `Cc1[nH]ncc1[C@H]1CN(c2ccnc(-c3cnc4ccc(Cl)cn34)n2)C[C@@H](C)O1` [I-561, (2R,6S)-4-(2-(6-chloroimidazo[1,2-a]pyridin-3-yl)pyrimidin-4-yl)-2-methyl-6-(5-methyl-1H-pyrazol-4-yl)morpholine], the EC50 in experiment [1] was 100 to 500 nM.

For `C[C@@H]1CN(c2ccnc(-c3cnc4ccc(Cl)cn34)n2)C[C@H](c2cn[nH]c2)O1` [I-566, (2R,6S)-4-(2-(6-chloroimidazo[1,2-a]pyridin-3-yl)pyrimidin-4-yl)-2-methyl-6-(1H-pyrazol-4-yl)morpholine], the EC50 in experiment [1] was < 100 nM.

For `C[C@H]1CN(c2ccnc(-c3cnc4cc(F)c(Cl)cn34)n2)C[C@@H](c2cn[nH]c2)O1` [I-568, (2S,6R)-4-(2-(6-chloro-7-fluoroimidazo[1,2-a]pyridin-3-yl)pyrimidin-4-yl)-2-methyl-6-(1H-pyrazol-4-yl)morpholine], the EC50 in experiment [1] lay within 100 to 500 nM.

On to `c1ccc(Oc2ccc3ncc(-c4nccc(N5CCC[C@H](c6cn[nH]c6)C5)n4)n3c2)cc1` [I-398, 2-{6-phenoxyimidazo[1,2-a]pyridin-3-yl}-4-[(3R)-3-(1H-pyrazol-4-yl)piperidin-1-yl]pyrimidine], for which the IC50 – broadly, the concentration that inhibits the measured activity by half – at GCN2 kinase fell in the range of 100 to 1000 nM; in experiment [2] (setting [3]), 500 to 5000 nM.

Turning to `Cn1cnc(C(=O)N2CCN(c3ccnc(-c4cnc5ccc(C(F)(F)F)cn45)n3)CC2c2cn[nH]c2)c1` (centres unmarked) [I-446, (2-(1H-pyrazol-4-yl)-4-(2-(6-(trifluoromethyl)imidazo[1,2-a]pyridin-3-yl)pyrimidin-4-yl)piperazin-1-yl)(1-methyl-1H-imidazol-4-yl)methanone], the IC50 was 10 to 100 nM at GCN2 kinase and 500 to 5000 nM in experiment [2] (setting [3]).

Regarding `Clc1ccc2ncc(-c3nccc(N4CCOC(c5cn[nH]c5)C4)n3)n2c1` (centres unmarked) [I-20, 4-[2-(6-Chloroimidazo[1,2-a]pyridin-3-yl)pyrimidin-4-yl]-2-(1H-pyrazol-4-yl)morpholine], the Ki on GCN2 kinase was < 10 nM. Also, the IC50 in experiment [2] (setting [3]) was < 500 nM.

For `C[C@@H]1[C@H](CNS(C)(=O)=O)N(C2CC2)[C@H](C)CN1c1ccnc(-c2cnc3ccc(C(F)(F)F)cn23)n1` (stereo in doubt) [I-494, N-(((2S,3R,6R)-1-cyclopropyl-3,6-dimethyl-4-(2-(6-(trifluoromethyl)imidazo[1,2-a]pyridin-3-yl)pyrimidin-4-yl)piperazin-2-yl)methyl)methanesulfonamide], the figures for the IC50 (against GCN2 kinase; in experiment [2] (setting [3])) were 100 to 1000 nM and 500 to 5000 nM, respectively.

Consider `NC(=O)C1CN(c2ccnc(-c3cnc4ccc(C(F)(F)F)cn34)n2)CCN1` (centres unmarked) [I-217, 4-(2-(6-(trifluoromethyl)imidazo[1,2-a]pyridin-3-yl)pyrimidin-4-yl)piperazine-2-carboxamide], for which the IC50 on GCN2 kinase lay within 10 to 100 nM; in experiment [2] (setting [3]), 500 to 5000 nM.

As for `O=C(Nc1cn[nH]c1)[C@H]1CCCN(c2ccnc(-c3cnc4cc(F)c(Cl)cn34)n2)C1` [I-58, (S)-1-[2-(6-Chloro-7-fluoro-imidazo[1,2-a]pyridine-3-yl)-pyrimidin-4-yl]-piperidine-3-carboxylic acid (1H-pyrazol-4-yl)-amide], at GCN2 kinase, the Ki lay within 10 to 100 nM. The IC50 in experiment [2] (GCN2 Biomarker (IC50), phosphorylated eIF2α Ser51) lay in the range of 500 to 5000 nM.

Turning to `FC(F)(F)c1ccc2ncc(-c3nccc(N4CCNC(c5cn[nH]c5)C4)n3)n2c1` (centres unmarked) [I-351, 3-(4-(3-(1H-pyrazol-4-yl)piperazin-1-yl)pyrimidin-2-yl)-6-(trifluoromethyl)imidazo[1,2-a]pyridine], the figures for the IC50 (against GCN2 kinase; in experiment [2] (setting [3])) were < 10 nM and < 500 nM, respectively.

As for `Fc1cc2ncc(-c3nccc(N4CCOC(c5ccccn5)C4)n3)n2cc1Cl` (centres unmarked) [I-88, 6-Chloro-7-fluoro-3-[4-(2-pyridin-2-yl-morpholin-4-yl)-pyrimidin-2-yl]-imidazo[1,2-a]pyridine], on GCN2 kinase, the Ki lay in the range of 100 to 1000 nM. The IC50 in experiment [2] (setting [3]) was < 500 nM.

Take `FC(F)(F)c1ccc2ncc(-c3nccc(N4CCN(C[C@@H]5CC56CCOCC6)[C@@H](c5cn[nH]c5)C4)n3)n2c1` [I-522, 3-(4-((S)-4-(((R)-6-oxaspiro[2.5]octan-1-yl)methyl)-3-(1H-pyrazol-4-yl)piperazin-1-yl)pyrimidin-2-yl)-6-(trifluoromethyl)imidazo[1,2-a]pyridine]: the IC50 against GCN2 kinase is < 10 nM; in experiment [2] (setting [3]) it was < 500 nM.

Regarding `CC1(C)C[C@@H]1CN1CCN(c2ccnc(-c3cnc4ccc(C(F)(F)F)cn34)n2)C[C@@H]1c1cn[nH]c1` [I-527, 3-(4-((S)-4-(((S)-2,2-dimethylcyclopropyl)methyl)-3-(1H-pyrazol-4-yl)piperazin-1-yl)pyrimidin-2-yl)-6-(trifluoromethyl)imidazo[1,2-a]pyridine], the half-inhibitory concentration (IC50) against GCN2 kinase fell in the range of 10 to 100 nM; in experiment [2] (setting [3]), 500 to 5000 nM.

As to `CC1CC(N=S(C)(C)=O)CN(c2ccnc(-c3cnc4ccc(C(F)(F)F)cn34)n2)C1` (centres unmarked) [I-32, dimethyl((5-methyl-1-(2-(6-(trifluoromethyl)imidazo[1,2-a]pyridin-3-yl)pyrimidin-4-yl)piperidin-3-yl)imino)-λ^6-sulfanone], at GCN2 kinase, the Ki was 10 to 100 nM. Moreover, in experiment [2] (setting [3]), the IC50 was 500 to 5000 nM.

Consider `Cc1cc(-c2cnc3ccc(N4CC(F)(F)C4)cn23)nc(N2C[C@@H](C)C[C@H](c3cn[nH]c3)C2)n1` [I-287, 6-(3,3-difluoroazetidin-1-yl)-3-(6-methyl-2-((3 S, 5R)-3-methyl-5-(1H-pyrazol-4-yl)piperidin-1-yl)pyrimidin-4-yl)imidazo[1,2-a]pyridine], for which the values for the half-inhibitory concentration (IC50) (on GCN2 kinase; in experiment [2] (setting [3])) were 10 to 100 nM and < 500 nM, respectively.

Take `C[C@@H]1CN(c2nccc(-c3cnc4cc(F)c(Cl)cn34)n2)C[C@@H](c2cn[nH]c2)O1` [I-274, (2R,6R)-4-(4-(6-chloro-7-fluoroimidazo[1,2-a]pyridin-3-yl)pyrimidin-2-yl)-2-methyl-6-(1H-pyrazol-4-yl)morpholine]: the IC50 against GCN2 kinase was in the range of 10 to 100 nM; in experiment [2] (setting [3]), 500 to 5000 nM.

For `FC(F)c1ccc2ncc(-c3ccnc(N4CCOC(c5cn[nH]c5)C4)n3)n2c1` (centres unmarked) [I-18, 4-[4-[6-(Difluoromethyl)imidazo[1,2-a]pyridin-3-yl]pyrimidin-2-yl]-2-(1H-pyrazol-4-yl)morpholine], on GCN2 kinase, the Ki is < 10 nM. The IC50 in experiment [2] (setting [3]) is < 500 nM.

On to `C[C@H]1[C@H](c2cn[nH]c2)N(C2COC2)CCN1c1ccnc(-c2cnc3ccc(C(F)(F)F)cn23)n1` [I-364, 3-(4-((2S,3 S)-2-methyl-4-(oxetan-3-yl)-3-(1H-pyrazol-4-yl)piperazin-1-yl)pyrimidin-2-yl)-6-(trifluoromethyl)imidazo[1,2-a]pyridine], for which the IC50 at GCN2 kinase is 100 to 1000 nM; in experiment [2] (setting [3]), > 5000 nM.

At GCN2 kinase, `CS(C)(=O)=NC1CCCN(c2ccnc(-c3cnc4cc(F)c(Cl)cn34)n2)C1` (centres unmarked) [I-49, ((1-(2-(6-Chloro-7-fluoroimidazo[1,2-a]pyridin-3-yl)pyrimidin-4-yl)piperidin-3-yl)imino)dimethyl-λ^6-sulfanone] gave a Ki of 10 to 100 nM. Moreover, the IC50 in experiment [2] (setting [3]) was > 5000 nM.

`NC(=O)C1(O)CCCN(c2ccnc(-c3cnc4ccc(C(F)(F)F)cn34)n2)C1` (centres unmarked) [I-213, 3-hydroxy-1-(2-(6-(trifluoromethyl)imidazo[1,2-a]pyridin-3-yl)pyrimidin-4-yl)piperidine-3-carboxamide]: the IC50 is 10 to 100 nM on GCN2 kinase and 500 to 5000 nM in experiment [2] (setting [3]).

`O=C(Nc1ccncc1)[C@H]1CCCN(c2ccnc(-c3cnc4cc(F)c(Cl)cn34)n2)C1` [I-86, (S)-1-[2-(6-Chloro-7-fluoro-imidazo[1,2-a]pyridine-3-yl)-pyrimidin-4-yl]-piperidine-3-carboxylic acid pyridine-4-ylamide]: the Ki on GCN2 kinase is 10 to 100 nM. Besides, the IC50 in experiment [2] (setting [3]) lay within 500 to 5000 nM.
